This passage reports Ki results from patent US6620839B2, “1,3-disubstituted and 1,3,3-trisubstituted pyrrolidines as histamine-3 receptor ligands and their therapeutic applications” (Abbott Laboratories, priority 2000, dated 2003).

Each structure is given as a SMILES string.

As usually defined, the Ki is a dissociation constant, usually derived from enzyme kinetics or from competition with a known ligand. Read a low Ki as tighter binding.

The target of this assay is T1, histamine-3 receptor (Rattus norvegicus, UniProt Q9QYN8).
T1 construct: from tissue; host or cells: male Sprague-Dawley rat brain cortex membranes
T1 sequence (Q9QYN8 whole entry): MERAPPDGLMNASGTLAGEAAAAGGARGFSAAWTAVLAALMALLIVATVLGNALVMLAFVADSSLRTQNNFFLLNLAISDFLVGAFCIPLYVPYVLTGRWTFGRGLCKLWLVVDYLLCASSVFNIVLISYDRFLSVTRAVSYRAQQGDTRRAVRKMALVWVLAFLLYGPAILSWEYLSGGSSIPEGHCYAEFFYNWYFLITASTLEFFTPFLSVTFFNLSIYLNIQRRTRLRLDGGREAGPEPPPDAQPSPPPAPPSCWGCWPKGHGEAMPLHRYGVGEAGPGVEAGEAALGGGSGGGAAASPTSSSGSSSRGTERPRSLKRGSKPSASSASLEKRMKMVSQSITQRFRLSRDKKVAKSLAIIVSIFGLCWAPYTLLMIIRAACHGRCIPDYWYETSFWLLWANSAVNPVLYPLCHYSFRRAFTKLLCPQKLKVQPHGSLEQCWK
The assay is described as follows: Histamine-3 receptor binding, (3H)-N-α-methylhistamine displacement in rat cortical membranes. Particulars: male Sprague-Dawley rat brain cortical membranes; (3H)-N-α-methylhistamine ~0.6 nM; 30 minutes at 25° C.; Cheng-Prusoff. As to the method: Briefly, male Sprague-Dawley rat brain cortices were homogenized (1 g tissue/10 mL buffer) in 50 mM Tris-HCl/5 mM EDTA containing protease inhibitor cocktail (Calbiochem) using a polytron set at 20,500 rpm. Homogenates were centrifuged for 20 minutes at 40,000×g. The supernatant was decanted, and pellets were weighed. The pellet was resuspended by polytron homogenization in 40 mL 50 mM Tris-HCl/5 mM EDTA with protease inhibitors and centrifuged for 20 minutes at 40,000×g. […] Test compounds were dissolved in DMSO to provide 20 mM solution, serially diluted and then added to the incubation mixtures prior to initiating the incubation assay by addition of the membranes. Thioperamide (3 μM) was used to determine nonspecific binding. Binding incubations were conducted for 30 minutes at 25° C. and terminated by addition of 2 mL of ice cold 50 mM Tris-HCl (pH 7.7) and filtration through 0.3% polyethylenimine-soaked Unifilter plates (Packard). These filters were washed 4 additional times with 2 mL of ice-cold 50 mM Tris-HCl and dried for 1 hour. Radioactivity was determined using liquid scintillation counting techniques. Results were analyzed by Hill transformation and Ki values were determined using the Cheng-Prusoff equation.
Regarding `CC(C)(C)c1ccc(S(=O)(=O)N[C@@H]2CCN(CCCOc3ccc(C(=O)C4CC4)cc3)C2)cc1` [Example 60, 4-tert-butyl-N-((3R)-1-{3-[4-(cyclopropylcarbonyl)phenoxy]propyl}pyrrolidinyl)benzenesulfonamide], the Ki was 5.2 nM. On to `Cc1ccc(S(=O)(=O)N[C@@H]2CCN(CCCOc3ccc(C(=O)C4CC4)cc3)C2)cc1` [Example 61, N-((3R)-1-{3-[4-(cyclopropylcarbonyl)phenoxy]propyl}pyrrolidinyl)-4-methylbenzenesulfonamide], for which the Ki came to 4.2 nM. As for `O=C(c1ccc(OCCCN2CC[C@@H](NS(=O)(=O)c3cccc(C(F)(F)F)c3)C2)cc1)C1CC1` [Example 62, N-((3R)-1-{3-[4-(cyclopropylcarbonyl)phenoxy]propyl}pyrrolidinyl)-3-(trifluoromethyl)benzenesulfonamide], the Ki was determined as 6.4 nM. `COc1ccc(OC)c(S(=O)(=O)N[C@@H]2CCN(CCCOc3ccc(C(=O)C4CC4)cc3)C2)c1` [Example 63, N-((3R)-1-{3-[4-(cyclopropylcarbonyl)phenoxy]propyl}pyrrolidinyl)-2,5-dimethoxybenzenesulfonamide] displayed a Ki of 12 nM. `Cc1ccccc1S(=O)(=O)N[C@@H]1CCN(CCCOc2ccc(C(=O)C3CC3)cc2)C1` [Example 64, N-((3R)-1-{3-[4-(cyclopropylcarbonyl)phenoxy]propyl}pyrrolidinyl)-2-methylbenzenesulfonamide]: the Ki was 11 nM. With `O=C(c1ccc(OCCCN2CC[C@@H](NS(=O)(=O)c3ccc(F)c(Cl)c3)C2)cc1)C1CC1` [Example 65, 3-chloro-N-((3R)-1-{3-[4-(cyclopropylcarbonyl)phenoxy]propyl}pyrrolidinyl)-4-fluorobenzenesulfonamide], the affinity, expressed as Ki, was 5 nM. The molecule `CCc1ccc(S(=O)(=O)N[C@@H]2CCN(CCCOc3ccc(C(=O)C4CC4)cc3)C2)cc1` [Example 66, N-((3R)-1-{3-[4-(cyclopropylcarbonyl)phenoxy]propyl}pyrrolidinyl)-4-ethylbenzenesulfonamide] came in with a Ki of 4.6 nM. In turn, `O=C(c1ccc(OCCCN2CC[C@@H](NS(=O)(=O)c3ccccc3F)C2)cc1)C1CC1` [Example 68, N-((3R)-1-{3-[4-(cyclopropylcarbonyl)phenoxy]propyl}pyrrolidinyl)-2-fluorobenzenesulfonamide] had a Ki of 2.8 nM.

Molecule `O=C(c1ccc(OCCCN2CC[C@@H](NS(=O)(=O)c3cccc(Cl)c3)C2)cc1)C1CC1` [Example 70, 3-chloro-N-((3R)-1-{3-[4-(cyclopropylcarbonyl)phenoxy]propyl}pyrrolidinyl)benzenesulfonamide] registered a Ki of 3 nM. In the case of `N#Cc1cccc(S(=O)(=O)N[C@@H]2CCN(CCCOc3ccc(C(=O)C4CC4)cc3)C2)c1` [Example 71, 3-cyano-N-((3R)-1-{3-[4-(cyclopropylcarbonyl)phenoxy]propyl}pyrrolidinyl)benzenesulfonamide], the Ki was 2.8 nM. The molecule `CC(=O)c1ccc(OCCCN2CC[C@@H](NS(=O)(=O)c3cccc(F)c3)C2)cc1` [Example 72, N-{(3R)-1-[3-(4-acetylphenoxy)propyl]pyrrolidinyl}-3-fluorobenzenesulfonamide] had a Ki of 7.9 nM.

Molecule `CC(=O)c1ccc(OCCCN2CC[C@@H](NS(=O)(=O)c3ccc(F)cc3F)C2)cc1` [Example 74, N-{(3R)-1-[3-(4-acetylphenoxy)propyl]pyrrolidinyl}-2,4-difluorobenzenesulfonamide] returned a Ki of 5.6 nM. In the case of `CC(=O)c1ccc(OCCCN2CC[C@@H](NS(=O)(=O)c3cccc4cnccc34)C2)cc1` [Example 75, N-{(3R)-1-[3-(4-acetylphenoxy)propyl]pyrrolidinyl}-5-isoquinolinesulfonamide], the inhibition constant (Ki) amounted to 19 nM.

Turning to `CC(=O)Nc1ccc(S(=O)(=O)N[C@@H]2CCN(CCCOc3ccc(C(C)=O)cc3)C2)cc1Cl` [Example 76, N-{4-[({(3R)-1-[3-(4-acetylphenoxy)propyl]pyrrolidinyl}amino)sulfonyl]-2-chlorophenyl}acetamide], affinity was put at a Ki of 4.9 nM. As to `CC(=O)c1ccc(OCCCN2CC[C@@H](NS(=O)(=O)c3ccc(Cl)c(Cl)c3)C2)cc1` [Example 77, N-{(3R)-1-[3-(4-acetylphenoxy)propyl]pyrrolidinyl}-3,4-dichlorobenzenesulfonamide], the affinity corresponds to a Ki of 5.3 nM. As for `CC(=O)c1ccc(OCCCN2CC[C@@H](NS(=O)(=O)c3cccn3-c3ncc(C(F)(F)F)cc3Cl)C2)cc1` [Example 78, N-{(3R)-1-[3-(4-acetylphenoxy)propyl]pyrrolidinyl}-1-[3-chloro-5-(trifluoromethyl)-2-pyridinyl]-1H-pyrrole-2-sulfonamide], the Ki came out at 8.7 nM. The molecule `CC(=O)c1ccc(OCCCN2CC[C@@H](NS(=O)(=O)c3ccc(Oc4ncc(C(F)(F)F)cc4Cl)cc3)C2)cc1` [Example 79, N-{(3R)-1-[3-(4-acetylphenoxy)propyl]pyrrolidinyl}-4-{[3-chloro-5-(trifluoromethyl)-2-pyridinyl]oxy}benzenesulfonamide] came in with a Ki of 7.9 nM. In the case of `Cn1cnc(S(=O)(=O)N[C@@H]2CCN(CCCOc3ccc(C(=O)C4CC4)cc3)C2)c1` [Example 80, N-((3R)-1-{3-[4-(cyclopropylcarbonyl)phenoxy]propyl}pyrrolidinyl)-1-methyl-1H-imidazole-4-sulfonamide], the Ki came to 10 nM. `O=C(c1ccc(OCCCN2CC[C@@H](NS(=O)(=O)c3cccs3)C2)cc1)C1CC1` [Example 81, N-((3R)-1-{3-[4-(cyclopropylcarbonyl)phenoxy]propyl}pyrrolidinyl)-2-thiophenesulfonamide] returned a Ki of 5 nM. Turning to `Cc1c(S(=O)(=O)N[C@@H]2CCN(CCCOc3ccc(C(=O)C4CC4)cc3)C2)sc2ccc(Cl)cc12` [Example 82, 5-chloro-N-((3R)-1-{3-[4-(cyclopropylcarbonyl)phenoxy]propyl}pyrrolidinyl)-3-methyl-1-benzothiophene-2-sulfonamide], the affinity corresponds to a Ki of 21 nM. Then `O=C(c1ccc(OCCCN2CC[C@@H](NS(=O)(=O)c3cc(C(F)(F)F)cc(C(F)(F)F)c3)C2)cc1)C1CC1` [Example 83, N-((3R)-1-{3-[4-(cyclopropylcarbonyl)phenoxy]propyl}pyrrolidinyl)-3,5-bis(trifluoromethyl)benzenesulfonamide], with 23 nM; and `O=C(c1ccc(OCCCN2CC[C@@H](NS(=O)(=O)c3cccc4cccnc34)C2)cc1)C1CC1` [Example 84, N-((3R)-1-{3-[4-(cyclopropylcarbonyl)phenoxy]propyl}pyrrolidinyl)-8-quinolinesulfonamide], with 9.5 nM. Then `CCCCOc1ccc(S(=O)(=O)N[C@@H]2CCN(CCCOc3ccc(C(=O)C4CC4)cc3)C2)cc1` [Example 85, 4-butoxy-N-((3R)-1-{3-[4-(cyclopropylcarbonyl)phenoxy]propyl}pyrrolidinyl)benzenesulfonamide], with 5.3 nM; and `COc1ccc(S(=O)(=O)N[C@@H]2CCN(CCCOc3ccc(C(=O)C4CC4)cc3)C2)cc1OC` [Example 86, N-((3R)-1-{3-[4-(cyclopropylcarbonyl)phenoxy]propyl}pyrrolidinyl)-3,4-dimethoxybenzenesulfonamide], with 1.8 nM; and `Cc1ccc(S(=O)(=O)N[C@@H]2CCN(CCCOc3ccc(C(=O)C4CC4)cc3)C2)cc1Cl` [Example 87, 3-chloro-N-((3R)-1-{3-[4-(cyclopropylcarbonyl)phenoxy]propyl}pyrrolidinyl)-4-methylbenzenesulfonamide], with 4.9 nM. As for `O=C(c1ccc(OCCCN2CC[C@@H](NS(=O)(=O)C=Cc3ccccc3)C2)cc1)C1CC1` [Example 88, N-((3R)-1-{3-[4-(cyclopropylcarbonyl)phenoxy]propyl}pyrrolidinyl)-2-phenylethenesulfonamide], the Ki worked out at 6.8 nM. Turning to `O=C(c1ccc(OCCCN2CC[C@@H](NS(=O)(=O)c3ccccc3OC(F)(F)F)C2)cc1)C1CC1` [Example 89, N-((3R)-1-{3-[4-(cyclopropylcarbonyl)phenoxy]propyl}pyrrolidinyl)-2-(trifluoromethoxy)benzenesulfonamide], affinity was put at a Ki of 11 nM. Consider `N#Cc1ccccc1S(=O)(=O)N[C@@H]1CCN(CCCOc2ccc(C(=O)C3CC3)cc2)C1` [Example 90, 2-cyano-N-((3R)-1-{3-[4-(cyclopropylcarbonyl)phenoxy]propyl}pyrrolidinyl)benzenesulfonamide], for which the inhibition constant Ki was 11 nM.

In turn, `Cc1cccc(S(=O)(=O)N[C@@H]2CCN(CCCOc3ccc(C(=O)C4CC4)cc3)C2)c1` [Example 91, N-((3R)-1-{3-[4-(cyclopropylcarbonyl)phenoxy]propyl}pyrrolidinyl)-3-methylbenzenesulfonamide] had a Ki of 2.8 nM. In turn, `O=C(c1ccc(OCCCN2CC[C@@H](NS(=O)(=O)c3ccc(C(F)(F)F)cc3)C2)cc1)C1CC1` [Example 92, N-((3R)-1-{3-[4-(cyclopropylcarbonyl)phenoxy]propyl}pyrrolidinyl)-4-(trifluoromethyl)benzenesulfonamide] had a Ki of 4.9 nM.

Molecule `O=C(c1ccc(OCCCN2CC[C@@H](NS(=O)(=O)c3cccc(F)c3)C2)cc1)C1CC1` [Example 93, N-((3R)-1-{3-[4-(cyclopropylcarbonyl)phenoxy]propyl}pyrrolidinyl)-3-fluorobenzenesulfonamide] registered a Ki of 3.2 nM.
